In the OligoGym collection:
HELM strings list units from the 5' end as sugar, base in round brackets, then linkage (d deoxyribose, r ribose, m 2'-O-methyl, p phosphodiester). Strings are as the collection lists them; they lack the last nucleoside at the 3' end of the tested compound. [moe] = 2'-O-(2-methoxyethyl) (MOE); [sp] = phosphorothioate linkage; [m5C] = 5-methylcytosine

Each substance was assayed against ATXN3 (assay: mouse, dose not given). Settings: ASO.

Point of comparison: “RNA1{[moe](T)[sp].[moe](G)p.[moe]([m5C])p.[moe](T)p.[moe](T)p.d(T)[sp].d(T)[sp].d([m5C])[sp].d(A)[sp].d(T)[sp].d(A)[sp].d([m5C])[sp].d([m5C])[sp].d(A)[sp].d(G)[sp].[moe](G)p.[moe](T)p.[moe]([m5C])[sp].[moe](T)}$$$$ (last 3' nucleoside missing)”, 3 h FOB score 1.25 score 0-7. Against it:
- RNA1{[moe](T)[sp].[moe](G)p.[moe](T)p.[moe](A)p.[moe]([m5C])[sp].d(A)[sp].d([m5C])[sp].d(T)[sp].d(T)[sp].d(T)[sp].d(T)[sp].d(A)[sp].d([m5C])[sp].d(A)[sp].d(T)[sp].[moe](T)p.[moe]([m5C])p.[moe]([m5C])[sp].[moe]([m5C])}$$$$ (last 3' nucleoside missing) — lower, 1 score 0-7
- RNA1{[moe](T)[sp].[moe](G)p.[moe](T)p.[moe](T)p.[moe](A)[sp].d(A)[sp].d(T)[sp].d(A)[sp].d([m5C])[sp].d(T)[sp].d(T)[sp].d(T)[sp].d(T)[sp].d(T)[sp].d([m5C])[sp].[moe]([m5C])p.[moe](A)p.[moe](G)[sp].[moe]([m5C])}$$$$ (last 3' nucleoside missing) — lower, 0 score 0-7
- RNA1{[moe](T)[sp].[moe](G)p.[moe](T)p.[moe](T)p.[moe](A)p.d(A)[sp].d(T)[sp].d(A)[sp].d([m5C])[sp].d(T)[sp].d(T)[sp].d(T)[sp].d(T)[sp].d(T)[sp].d([m5C])[sp].[moe]([m5C])p.[moe](A)p.[moe](G)[sp].[moe]([m5C])}$$$$ (last 3' nucleoside missing) — lower, 1 score 0-7
- RNA1{[moe](T)[sp].[moe](G)p.[moe](T)p.[moe](T)p.[moe]([m5C])[sp].d(A)[sp].d(T)[sp].d(A)[sp].d(T)[sp].d([m5C])[sp].d([m5C])[sp].d(T)[sp].d(T)[sp].d(T)[sp].d(A)[sp].[moe](A)p.[moe]([m5C])p.[moe]([m5C])[sp].[moe]([m5C])}$$$$ (last 3' nucleoside missing) — lower, 0 score 0-7
- RNA1{[moe](T)[sp].[moe](G)p.[moe]([m5C])p.[moe](A)p.[moe]([m5C])[sp].d(A)[sp].d([m5C])[sp].d(T)[sp].d(T)[sp].d(T)[sp].d([m5C])[sp].d([m5C])[sp].d(T)[sp].d([m5C])[sp].d([m5C])[sp].[moe](T)p.[moe]([m5C])p.[moe](A)[sp].[moe](A)}$$$$ (last 3' nucleoside missing) — lower, 0.5 score 0-7
- RNA1{[moe](T)[sp].[moe](G)p.[moe]([m5C])p.[moe](T)p.[moe](T)[sp].d(T)[sp].d(T)[sp].d([m5C])[sp].d(A)[sp].d(T)[sp].d(A)[sp].d([m5C])[sp].d([m5C])[sp].d(A)[sp].d(G)[sp].[moe](G)p.[moe](T)p.[moe]([m5C])[sp].[moe](T)}$$$$ (last 3' nucleoside missing) — lower, 0.25 score 0-7
- RNA1{[moe](T)[sp].[moe](G)p.[moe]([m5C])p.[moe](T)p.[moe]([m5C])[sp].d(A)[sp].d(T)[sp].d(T)[sp].d(T)[sp].d(A)[sp].d(T)[sp].d(T)[sp].d([m5C])[sp].d(T)[sp].d([m5C])[sp].[moe](A)p.[moe](A)p.[moe](G)[sp].[moe](T)}$$$$ (last 3' nucleoside missing) — lower, 0 score 0-7
- RNA1{[moe](T)[sp].[moe](G)p.[moe]([m5C])p.[moe](T)p.[moe]([m5C])p.[moe](A)p.d(T)[sp].d(T)[sp].d(T)[sp].d(A)[sp].d(T)[sp].d(T)[sp].d([m5C])[sp].d(T)[sp].d([m5C])[sp].d(A)[sp].[moe](A)p.[moe](G)[sp].[moe](T)}$$$$ (last 3' nucleoside missing) — lower, 0 score 0-7
- RNA1{[moe](T)[sp].[moe](G)p.[moe]([m5C])p.[moe](T)p.[moe]([m5C])p.d(A)[sp].d(T)[sp].d(T)[sp].d(T)[sp].d(A)[sp].d(T)[sp].d(T)[sp].d([m5C])[sp].d(T)[sp].d([m5C])[sp].[moe](A)p.[moe](A)p.[moe](G)[sp].[moe](T)}$$$$ (last 3' nucleoside missing) — lower, 1 score 0-7
- RNA1{[moe](T)[sp].[moe](T)p.[moe](T)p.[moe]([m5C])p.[moe](A)p.d(T)[sp].d(G)[sp].d(T)[sp].d(T)[sp].d([m5C])[sp].d([m5C])[sp].d(A)[sp].d(G)[sp].d(A)[sp].d(T)[sp].[moe]([m5C])p.[moe](A)p.[moe]([m5C])[sp].[moe]([m5C])}$$$$ (last 3' nucleoside missing) — lower, 1 score 0-7
- RNA1{[moe](T)[sp].[moe]([m5C])p.[moe](A)[sp].[moe]([m5C])[sp].[moe](A)[sp].d(A)[sp].d(T)[sp].d(G)[sp].d(A)[sp].d([m5C])[sp].d([m5C])[sp].d([m5C])[sp].d(T)[sp].d(T)[sp].d(T)[sp].[moe](T)[sp].[moe]([m5C])p.[moe](T)[sp].[moe](T)}$$$$ (last 3' nucleoside missing) — the same, 1.25 score 0-7
- RNA1{[moe]([m5C])[sp].[moe](A)p.[moe](A)p.[moe](T)p.[moe](A)[sp].d(T)[sp].d(T)[sp].d(T)[sp].d(A)[sp].d(T)[sp].d(A)[sp].d(G)[sp].d(G)[sp].d(T)[sp].d(G)[sp].[moe]([m5C])p.[moe](T)p.[moe](G)[sp].[moe]([m5C])}$$$$ (last 3' nucleoside missing) — higher, 4.5 score 0-7
- RNA1{[moe]([m5C])[sp].[moe](A)p.[moe](A)p.[moe](T)p.[moe](A)p.d(T)[sp].d(T)[sp].d(T)[sp].d(A)[sp].d(T)[sp].d(A)[sp].d(G)[sp].d(G)[sp].d(T)[sp].d(G)[sp].[moe]([m5C])p.[moe](T)p.[moe](G)[sp].[moe]([m5C])}$$$$ (last 3' nucleoside missing) — higher, 4 score 0-7
- RNA1{[moe]([m5C])[sp].[moe](A)p.[moe](G)p.[moe]([m5C])p.[moe](A)p.[moe]([m5C])p.d([m5C])[sp].d(A)[sp].d(T)[sp].d(A)[sp].d(T)[sp].d(A)[sp].d(T)[sp].d(A)[sp].d(T)[sp].d([m5C])[sp].[moe](T)p.[moe]([m5C])[sp].[moe](A)}$$$$ (last 3' nucleoside missing) — lower, 0.625 score 0-7
- RNA1{[moe]([m5C])[sp].[moe](A)p.[moe]([m5C])p.[moe](A)p.[moe]([m5C])[sp].d(T)[sp].d(T)[sp].d(T)[sp].d([m5C])[sp].d([m5C])[sp].d(T)[sp].d([m5C])[sp].d([m5C])[sp].d(T)[sp].d([m5C])[sp].[moe](A)p.[moe](A)p.[moe](T)[sp].[moe]([m5C])}$$$$ (last 3' nucleoside missing) — lower, 0 score 0-7
- RNA1{[moe]([m5C])[sp].[moe](A)p.[moe]([m5C])p.[moe]([m5C])p.[moe](A)[sp].d(T)[sp].d([m5C])[sp].d(T)[sp].d(T)[sp].d(T)[sp].d(G)[sp].d(A)[sp].d([m5C])[sp].d(A)[sp].d(A)[sp].[moe](G)p.[moe]([m5C])p.[moe](T)[sp].[moe](A)}$$$$ (last 3' nucleoside missing) — the same, 1.25 score 0-7
- RNA1{[moe]([m5C])[sp].[moe](T)p.[moe](G)p.[moe](G)p.[moe](T)[sp].d([m5C])[sp].d(A)[sp].d(G)[sp].d(T)[sp].d(T)[sp].d(T)[sp].d([m5C])[sp].d([m5C])[sp].d(T)[sp].d(A)[sp].[moe](A)p.[moe](T)p.[moe](T)[sp].[moe](T)}$$$$ (last 3' nucleoside missing) — lower, 0 score 0-7
- RNA1{[moe]([m5C])[sp].[moe](T)p.[moe](G)p.[moe](T)p.[moe](A)[sp].d([m5C])[sp].d(A)[sp].d([m5C])[sp].d(T)[sp].d(T)[sp].d(T)[sp].d(T)[sp].d(A)[sp].d([m5C])[sp].d(A)[sp].[moe](T)p.[moe](T)p.[moe]([m5C])[sp].[moe]([m5C])}$$$$ (last 3' nucleoside missing) — lower, 1 score 0-7
- RNA1{[moe]([m5C])[sp].[moe](T)p.[moe](G)p.[moe]([m5C])p.[moe](A)[sp].d([m5C])[sp].d(A)[sp].d([m5C])[sp].d(T)[sp].d(T)[sp].d(T)[sp].d([m5C])[sp].d([m5C])[sp].d(T)[sp].d([m5C])[sp].[moe]([m5C])p.[moe](T)p.[moe]([m5C])[sp].[moe](A)}$$$$ (last 3' nucleoside missing) — lower, 0 score 0-7
- RNA1{[moe]([m5C])[sp].[moe]([m5C])p.[moe](A)p.[moe](A)p.[moe](T)[sp].d(A)[sp].d(T)[sp].d(T)[sp].d(T)[sp].d(A)[sp].d(T)[sp].d(A)[sp].d(G)[sp].d(G)[sp].d(T)[sp].[moe](G)p.[moe]([m5C])p.[moe](T)[sp].[moe](G)}$$$$ (last 3' nucleoside missing) — higher, 3.5 score 0-7
- RNA1{[moe]([m5C])[sp].[moe]([m5C])p.[moe](A)p.[moe](A)p.[moe](T)p.d(A)[sp].d(T)[sp].d(T)[sp].d(T)[sp].d(A)[sp].d(T)[sp].d(A)[sp].d(G)[sp].d(G)[sp].d(T)[sp].[moe](G)p.[moe]([m5C])p.[moe](T)[sp].[moe](G)}$$$$ (last 3' nucleoside missing) — higher, 1.75 score 0-7
- RNA1{[moe]([m5C])[sp].[moe]([m5C])p.[moe]([m5C])p.[moe](A)p.[moe](A)[sp].d(T)[sp].d(A)[sp].d(A)[sp].d(T)[sp].d([m5C])[sp].d(T)[sp].d(G)[sp].d(A)[sp].d([m5C])[sp].d(A)[sp].[moe](T)p.[moe]([m5C])p.[moe]([m5C])[sp].[moe](T)}$$$$ (last 3' nucleoside missing) — higher, 1.5 score 0-7
